Columns and labels:
[1] = system: PC12 20.4 cells; test: Cell survival of PC12 20.4 cells after TSA addition (phase contrast images); format: cell-based, rat; settings: 3 μM TSA for 12 h
Description: As described in example 4, the PC12 cell line 20.4 expresses all components of the Cre-based reporter system in a completely functional manner. In order to test whether the cell line 20.4 can be utilized for application in the two-hybrid system (see FIG. 2), the known interaction partners described in example 3 were analyzed. Two days after cotransfection of the interaction partners G-ME2bHLH and V-ND, no GFP-positive cells were detectable (see FIG. 7, bottom left). After single transfections of G-ME2bHLH and V-ND, GFP-positive cells were likewise not detectable (see FIG. 7, central figures, left). […] Therefore, the same two-hybrid analysis was carried out in the following experiments, after transient addition of trichostatin A (3 μM, for 12 h, Sigma) (FIG. 8). […] After single transfections of G-ME2bHLH and V-ND, no GFP-positive cells were detectable (see FIG. 8, central figures, left). […] The TSA concentration with the best ratio of cell survival and nearly background-free detection of the interaction of G-ME2bHLH and V-ND, was […] for 12 h. […] Only after cotransfection of the interaction partners GBR2cc and V-GBR1cc, a multiplicity of GFP-positive cells were detected, after single transfection and cotransfection of the cc deletion mutants, GBR2ccDel and V-GBR1ccDel, no GFP-positive cells were microscopically detectable (see FIG. 9, bottom bar).

[2] = system: interaction of G-ME2bHLH and V-ND in PC12 20.4 cells; test: Cre recombinase-based two-hybrid system in PC12 cell line 20.4 with transient addition of TSA, GFP fluorescence; parameters: species or system rat; settings: 3 μM TSA for 12 h; two days after transfection of G-ME2bHLH and V-ND; without TSA no GFP-positive cells
Description: FIG. 8 depicts GFP-fluorescence and phase contrast images of the stable PC12 cell line #20.4 two days after transfection with GV, G-ME2bHLH, V-ND and G-ME2bHLH with V-ND, with addition of TSA. […] After cotransfection of the two-hybrid interaction partners V-ND and G-ME2bHLH, GFP fluorescence is likewise detectable under the TSA culturing conditions (bottom left). Under control conditions, transfection of V-ND or G-ME2bHLH, no GFP fluorescence is detectable (center left).
As described in example 4, the PC12 cell line 20.4 expresses all components of the Cre-based reporter system in a completely functional manner. In order to test whether the cell line 20.4 can be utilized for application in the two-hybrid system (see FIG. 2), the known interaction partners described in example 3 were analyzed. Two days after cotransfection of the interaction partners G-ME2bHLH and V-ND, no GFP-positive cells were detectable (see FIG. 7, bottom left). After single transfections of G-ME2bHLH and V-ND, GFP-positive cells were likewise not detectable (see FIG. 7, central figures, left). […] Only after cotransfection of the interaction partners GBR2cc and V-GBR1cc, a multiplicity of GFP-positive cells were detected, after single transfection and cotransfection of the cc deletion mutants, GBR2ccDel and V-GBR1ccDel, no GFP-positive cells were microscopically detectable (see FIG. 9, bottom bar).

## CC(/C=C/C(=O)NO)=C\[C@@H](C)C(=O)c1ccc(N(C)C)cc1 [TSA, trichostatin A]
[1]
  number of surviving cells: lower number of surviving cells
[2]
  GFP-positive cells detected after transient addition of TSA: a multiplicity of GFP-positive cells were now detected

Reference: US8349619B2, “Method for detecting and analyzing protein interactions in-vivo” (Sygnis Bioscience GmbH & Co. KG, priority 2002, dated 2013)
